The test system of data set [1] is K. pneumoniae ATCC BAA-1705. Briefly: Library hits: MIC against K. pneumoniae. Type of data set: cell-based.
The test system of data set [2] is A. baumannii ATCC BAA-1605. Briefly: Library hits: MIC against A. baumannii. Type of data set: cell-based.
The test system of another data set is E. cloacae ATCC BAA-1143. Briefly: Library hits: MIC against E. cloacae. In kind it is cell-based.
For another data set, the system named is P. aeruginosa ATCC 15442. Briefly: Library hits: MIC against P. aeruginosa. In kind it is cell-based.
The conditions of data set [3]: in vivo.
Data set [4] has as its system MRSA (23) clinical isolates. As to the kind of experiment: MIC against Gram +ve clinical isolates: MRSA. The note with it: for MIC50: MRSA (23). Type of data set: cell-based, S. aureus.
The test system of data set [5] is VISA and VRSA (14) clinical isolates. Briefly: MIC against Gram +ve clinical isolates: VISA and VRSA. Type of data set: cell-based, S. aureus. The note with it: Staphylococcus aureus.
The next data set deals with A. baumannii. Briefly: MIC against G-ve with and without colistin: A. baumannii. Type of data set: cell-based.
The next data set concerns E.. coli O157:H7. Briefly: MIC against G-ve with and without colistin: E. coli O157:H7. Type of data set: cell-based.
The subject of the next data set is K. pneumonia. As to the kind of experiment: MIC against G-ve with and without colistin: K. pneumonia. In kind it is cell-based. The note with it: without colistin.
Another data set concerns P. aeruginosa. Briefly: MIC against G-ve with and without colistin: P. aeruginosa. Type of data set: cell-based. The note with it: without colistin.
For data set [6], the system named is Colistin resistant clinical isolates of P. aeruginosa. As to the kind of experiment: MIC against G-ve with and without colistin: colistin resistant P. aeruginosa. Type of data set: cell-based. The note with it: without colistin.
The subject of a further data set is MRSA USA300. As to the kind of experiment: Mouse model of MRSA systemic infection (lethal). In kind it is in vivo, BALB/c mice. The note with it: oral 30 mg/kg once daily, three doses. An excerpt:
For MRSA systemic infection, neutropenic Female BALB/c mice were inoculated IP with 1×10^9 MRSA USA300.

For data set [7] the following is noted: cited from earlier work.

≈ marks a conversion by molar mass, not a printed value. Where two headings read alike, the source gives them in different places.

In the case of `O=c1[nH]c(=O)n([C@H]2C[C@H](O)[C@@H](CO)O2)cc1F` [FdUrd, 5-fluoro-2′-deoxyuridine], the MIC/MBC in data set [1] is 8 µM (≈ 1.97 µg/mL); in [2], more than 16 µM; in the data set with E. cloacae ATCC BAA-1143, more than 16 µM; against P. aeruginosa ATCC 15442, more than 16 µM. Besides, the “achieved plasma concentration after a therapeutic dose relative to required MIC90 against MRSA” value in data set [3] was “more than a thousand-folds higher”.

In the case of `O=c1c2ccccc2[se]n1-c1ccccc1` [Ebselen], the MIC50 in data set [4] (second column per drug) is 0.25 µg/mL (≈ 0.912 µM); in data set [4] (Staphylococcus aureus, read-out: MIC50), 0.25 µg/mL (≈ 0.912 µM); in data set [5] it was 0.125 µg/mL (≈ 0.456 µM); in data set [5] (read-out: MIC50) it was 0.25 µg/mL (≈ 0.912 µM). Also, in [4] (Staphylococcus aureus, MRSA, read-out: MIC90 (MICs at which 90% of MRSA isolates were inhibited)), the MIC90 was 0.25 µg/mL (≈ 0.912 µM). The “MIC, colistin (+)” value against A. baumannii (with sub-inhibitory colistin 0.0625 μg/ml) amounted to 0.25 µg/mL (≈ 0.912 µM); in the data set on E.. coli O157:H7 (E. coli O157:H7, with sub-inhibitory colistin 0.0625 μg/ml), 0.125 µg/mL (≈ 0.456 µM). The “MIC, colistin (−)” value is 16 µg/mL (≈ 58.4 µM) with A. baumannii (without colistin); 32 µg/mL (≈ 117 µM) against E.. coli O157:H7 (E. coli O157:H7, without colistin); 64 µg/mL (≈ 233 µM) against K. pneumonia; more than 256 µg/mL against P. aeruginosa; more than 256 µg/mL in [6]. In the data set on MRSA USA300, this compound came in with a mice survival of 60%. In [7] (30 mg/kg dose), the “increase in selenium concentration in the blood” value was 0.84±0.1 mg/L^−1. The plasma concentration in [7] (30 mg/kg dose) is 2910 ng/mL. Also, the “clinically achievable blood concentration” value in data set [7] (in vivo) is 2.91 µg/mL.

(Values after patent US10301664B2, “Repurposing non-antimicrobial drugs and clinical molecules to treat bacterial infections” (Purdue Research Foundation, priority 2015, dated 2019).)
